Data as given in patent publication US9695155B2, “Herbicidal substituted pyrimidinyloxy benzene compounds” (E. I. DU PONT DE NEMOURS AND COMPANY, priority 2013, dated 2017).

Columns and labels:
fall panicum = experiment: Test E preemergence; assay type: in vivo, Panicum dichotomiflorum; details: for Panicum, Fall plant response rating: scale 0 to 100 (0 no effect, 100 complete control); for Plant response rating, Panicum, Fall: scale 0 to 100, 0 no effect, 100 complete control
Text: (§1) Seeds of plant species selected from corn (Zea mays), soybean (Glycine max), velvetleaf (Abutilon theophrasti), lambsquarters (Chenopodium album), wild poinsettia (Euphorbia heterophylla), palmer pigweed (Amaranthus palmeri), waterhemp (common waterhemp, Amaranthus rudis), surinam grass (Brachiaria decumbens), large (Lg) crabgrass (Digitaria sanguinalis), Brazilian crabgrass (Digitaria horizontalis), fall panicum (Panicum dichotomiflorum), giant foxtail (Setaria faberii), green foxtail (Setaria viridis), goosegrass (Eleusine indica), johnsongrass (Sorghum halepense), ragweed (common ragweed, Ambrosia elatior), barnyardgrass (Echinochloa crus-galli), sandbur (southern sandbur, Cenchrus echinatus), arrowleaf sida (Sida rhombifolia), Italian ryegrass (Lolium multiflorum), dayflower (Virginia (VA) dayflower, Commelina virginica), field bindweed (Convolvulus arvensis), morningglory (Ipomoea coccinea), nightshade (eastern black nightshade, Solanum ptycanthum), kochia (Kochia scoparia), yellow nutsedge (Cyperus esculentus), cocklebur (common cocklebur, Xanthium strumarium), smartweed (ladysthumb smartweed, and hairy beggarticks (Bidens pilosa), were planted into a silt loam soil and treated preemergence with test chemicals formulated in a non-phytotoxic solvent mixture which included a surfactant.
(§2) At the same time, plants from these crop and weed species and also horseweed (Canada horseweed, Conyza canadensis), waterhemp_RES1, (ALS & Triazine resistant common waterhemp, Amaranthus rudis), and waterhemp_RES2, (ALS & HPPD resistant common waterhemp, Amaranthus rudis) were planted in pots containing Redi-Earth® planting medium (Scotts Company, 14111 Scottslawn Road, Marysville, Ohio 43041) comprising spaghnum peat moss, vermiculite, wetting agent and starter nutrients were treated with postemergence applications of test chemicals formulated in the same manner. Plants ranged in height from 2 to 18 cm for postemergence treatments (1- to 4-leaf stage). Treated plants and controls were maintained in a greenhouse for 14 to 21 days, after which time all species were compared to controls and visually evaluated. Plant response ratings, summarized in Table E, are based on a scale of 0 to 100 where 0 is no effect and 100 is complete control. A dash (-) response means no test result.

goosegrass = experiment: Test E preemergence; assay type: in vivo, Eleusine indica; details: for Goosegrass plant response rating: scale 0 to 100 (0 no effect, 100 complete control); for Plant response rating, Goosegrass: scale 0 to 100, 0 no effect, 100 complete control
Text: as §1, §2

soybean = experiment: Test E preemergence; assay type: in vivo, Glycine max; details: for Soybean plant response rating: scale 0 to 100 (0 no effect, 100 complete control); for Plant response rating, Soybean: scale 0 to 100, 0 no effect, 100 complete control
Text: as §1, §2

Italian ryegrass = experiment: Test E preemergence; assay type: in vivo, Lolium multiflorum; details: for Ryegrass, Italian plant response rating: scale 0 to 100 (0 no effect, 100 complete control); for Plant response rating, Ryegrass, Italian: scale 0 to 100, 0 no effect, 100 complete control
Text: as §1, §2

arrowleaf sida = experiment: Test E preemergence; assay type: in vivo, Sida rhombifolia; details: for Arrowleaf Sida plant response rating: scale 0 to 100 (0 no effect, 100 complete control); for Plant response rating, Arrowleaf Sida: scale 0 to 100, 0 no effect, 100 complete control
Text: as §1, §2

ragweed = experiment: Test E preemergence; assay type: in vivo, Ambrosia elatior; details: for Ragweed plant response rating: scale 0 to 100 (0 no effect, 100 complete control); for Plant response rating, Ragweed: scale 0 to 100, 0 no effect, 100 complete control
Text: as §1, §2

morningglory = experiment: Test E preemergence; assay type: in vivo, Ipomoea coccinea; details: for Morningglory plant response rating: scale 0 to 100 (0 no effect, 100 complete control); for Plant response rating, Morningglory: scale 0 to 100, 0 no effect, 100 complete control
Text: as §1, §2

johnsongrass = experiment: Test E preemergence; assay type: in vivo, Sorghum halepense; details: for Johnsongrass plant response rating: scale 0 to 100 (0 no effect, 100 complete control); for Plant response rating, Johnsongrass: scale 0 to 100, 0 no effect, 100 complete control
Text: as §1, §2

dayflower = experiment: Test E preemergence; assay type: in vivo, Commelina virginica; details: for Dayflower, VA plant response rating: scale 0 to 100 (0 no effect, 100 complete control); for Plant response rating, Dayflower, VA: scale 0 to 100, 0 no effect, 100 complete control
Text: as §1, §2

barnyardgrass = experiment: Test E preemergence; assay type: in vivo, Echinochloa crus-galli; details: for Barnyardgrass plant response rating: scale 0 to 100 (0 no effect, 100 complete control); for Plant response rating, Barnyardgrass: scale 0 to 100, 0 no effect, 100 complete control
Text: as §1, §2

sedge, umbrella = experiment: Test C flooded paddy test; assay type: in vivo, Cyperus difformis; details: Flood, scale 0 to 100 (0 no effect, 100 complete control), 13 to 15 days
Method in brief: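 Flooded 3 cm over soil; compound into paddy water; depth kept constant. Greenhouse 13–15 d.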

For FC(F)(F)c1cnn(-c2ccccc2Oc2ncc(Cl)cn2)c1 [Compound 16], the “Panicum, Fall plant response rating” value (fall panicum; 16 g ai/ha) was 0, the “Panicum, Fall plant response rating” value (fall panicum; 31 g ai/ha) was 80 and the “Panicum, Fall plant response rating” value (fall panicum; 62 g ai/ha) was 100. For the same compound, the “Plant response rating, Panicum, Fall” value (fall panicum; 125 g ai/ha) was 100, the “Plant response rating, Panicum, Fall” value (fall panicum; 250 g ai/ha) was 100 and the “Goosegrass plant response rating” value (goosegrass; 16 g ai/ha) was 0. The “Goosegrass plant response rating” value (goosegrass; 31 g ai/ha) was 35, the “Goosegrass plant response rating” value (goosegrass; 62 g ai/ha) was 50 and the “Plant response rating, Goosegrass” value (goosegrass; 125 g ai/ha) was 75. The “Plant response rating, Goosegrass” value (goosegrass; 250 g ai/ha) was 95, the “Soybean plant response rating” value (soybean; 16 g ai/ha) was 0 and the “Soybean plant response rating” value (soybean; 31 g ai/ha) was 60. For the same compound, the “Soybean plant response rating” value (soybean; 62 g ai/ha) was 60, the “Plant response rating, Soybean” value (soybean; 125 g ai/ha) was 90 and the “Plant response rating, Soybean” value (soybean; 250 g ai/ha) was 95. For the same compound, the “Ryegrass, Italian plant response rating” value (Italian ryegrass; 16 g ai/ha) was 0, the “Ryegrass, Italian plant response rating” value (Italian ryegrass; 31 g ai/ha) was 0 and the “Ryegrass, Italian plant response rating” value (Italian ryegrass; 62 g ai/ha) was 15. For the same compound, the “Plant response rating, Ryegrass, Italian” value (Italian ryegrass; 125 g ai/ha) was 40, the “Plant response rating, Ryegrass, Italian” value (Italian ryegrass; 250 g ai/ha) was 75 and the “Arrowleaf Sida plant response rating” value (arrowleaf sida; 16 g ai/ha, preemergence) was 5. The “Arrowleaf Sida plant response rating” value (arrowleaf sida; 31 g ai/ha, preemergence) was 35, the “Plant response rating, Arrowleaf Sida” value (arrowleaf sida; Preemergence, 62 g ai/ha) was 70 and the “Plant response rating, Arrowleaf Sida” value (arrowleaf sida; preemergence, 125 g ai/ha) was 95. The “Plant response rating, Arrowleaf Sida” value (arrowleaf sida; preemergence, 250 g ai/ha) was 98, the “Ragweed plant response rating” value (ragweed; 16 g ai/ha) was 0 and the “Ragweed plant response rating” value (ragweed; 31 g ai/ha) was 0. The “Ragweed plant response rating” value (ragweed; 62 g ai/ha) was 0, the “Plant response rating, Ragweed” value (ragweed; 125 g ai/ha) was 30 and the “Plant response rating, Ragweed” value (ragweed; 250 g ai/ha) was 65. For the same compound, the “Morningglory plant response rating” value (morningglory; 16 g ai/ha) was 0, the “Morningglory plant response rating” value (morningglory; 31 g ai/ha) was 0 and the “Morningglory plant response rating” value (morningglory; 62 g ai/ha) was 0. For the same compound, the “Plant response rating, Morningglory” value (morningglory; 125 g ai/ha) was 25, the “Plant response rating, Morningglory” value (morningglory; 250 g ai/ha) was 95 and the “Johnsongrass plant response rating” value (johnsongrass; 16 g ai/ha) was 0. The “Johnsongrass plant response rating” value (johnsongrass; 31 g ai/ha) was 0, the “Johnsongrass plant response rating” value (johnsongrass; 62 g ai/ha) was 0 and the “Plant response rating, Johnsongrass” value (johnsongrass; 125 g ai/ha) was 25. The “Plant response rating, Johnsongrass” value (johnsongrass; 250 g ai/ha) was 40, the “Dayflower, VA plant response rating” value (dayflower; 16 g ai/ha) was 0 and the “Dayflower, VA plant response rating” value (dayflower; 31 g ai/ha) was 0. The “Dayflower, VA plant response rating” value (dayflower; 62 g ai/ha) was 35, the “Plant response rating, Dayflower, VA” value (dayflower; 125 g ai/ha) was 70 and the “Plant response rating, Dayflower, VA” value (dayflower; 250 g ai/ha) was 98. For the same compound, the “Barnyardgrass plant response rating” value (barnyardgrass; 16 g ai/ha, preemergence) was 0, the “Barnyardgrass plant response rating” value (barnyardgrass; 31 g ai/ha, preemergence) was 0 and the “Plant response rating, Barnyardgrass” value (barnyardgrass; Preemergence, 62 g ai/ha) was 0. For the same compound, the “Plant response rating, Barnyardgrass” value (barnyardgrass; preemergence, 125 g ai/ha) was 10 and the “Plant response rating, Barnyardgrass” value (barnyardgrass; preemergence, 250 g ai/ha) was 40.

In the case of FC(F)(F)c1cnn(-c2ccccc2Oc2ncc(Br)cn2)c1 [Compound 18, 5-bromo-2-[2-[4-(trifluoromethyl)-1H-pyrazol-1-yl]phenoxy]pyrimidine], the “Panicum, Fall plant response rating” value (fall panicum; 16 g ai/ha) is reported as 0, the “Panicum, Fall plant response rating” value (fall panicum; 31 g ai/ha) is reported as 50 and the “Panicum, Fall plant response rating” value (fall panicum; 62 g ai/ha) is reported as 70. The “Plant response rating, Panicum, Fall” value (fall panicum; 125 g ai/ha) was 100, the “Plant response rating, Panicum, Fall” value (fall panicum; 250 g ai/ha) was 100 and the “Goosegrass plant response rating” value (goosegrass; 16 g ai/ha) was 0. For the same compound, the “Goosegrass plant response rating” value (goosegrass; 31 g ai/ha) was 0, the “Goosegrass plant response rating” value (goosegrass; 62 g ai/ha) was 30 and the “Plant response rating, Goosegrass” value (goosegrass; 125 g ai/ha) was 90. For the same compound, the “Plant response rating, Goosegrass” value (goosegrass; 250 g ai/ha) was 98, the “Soybean plant response rating” value (soybean; 16 g ai/ha) was 0 and the “Soybean plant response rating” value (soybean; 31 g ai/ha) was 0. For the same compound, the “Soybean plant response rating” value (soybean; 62 g ai/ha) was 60, the “Plant response rating, Soybean” value (soybean; 125 g ai/ha) was 90 and the “Plant response rating, Soybean” value (soybean; 250 g ai/ha) was 90. The “Ryegrass, Italian plant response rating” value (Italian ryegrass; 16 g ai/ha) was 0, the “Ryegrass, Italian plant response rating” value (Italian ryegrass; 31 g ai/ha) was 0 and the “Ryegrass, Italian plant response rating” value (Italian ryegrass; 62 g ai/ha) was 0. The “Plant response rating, Ryegrass, Italian” value (Italian ryegrass; 125 g ai/ha) was 20, the “Plant response rating, Ryegrass, Italian” value (Italian ryegrass; 250 g ai/ha) was 35 and the “Arrowleaf Sida plant response rating” value (arrowleaf sida; 16 g ai/ha, preemergence) was 0. The “Arrowleaf Sida plant response rating” value (arrowleaf sida; 31 g ai/ha, preemergence) was 5, the “Plant response rating, Arrowleaf Sida” value (arrowleaf sida; Preemergence, 62 g ai/ha) was 70 and the “Plant response rating, Arrowleaf Sida” value (arrowleaf sida; preemergence, 125 g ai/ha) was 85. For the same compound, the “Plant response rating, Arrowleaf Sida” value (arrowleaf sida; preemergence, 250 g ai/ha) was 95, the “Ragweed plant response rating” value (ragweed; 16 g ai/ha) was 0 and the “Ragweed plant response rating” value (ragweed; 31 g ai/ha) was 0. The “Ragweed plant response rating” value (ragweed; 62 g ai/ha) was 0, the “Plant response rating, Ragweed” value (ragweed; 125 g ai/ha) was 0 and the “Plant response rating, Ragweed” value (ragweed; 250 g ai/ha) was 0. For the same compound, the “Morningglory plant response rating” value (morningglory; 16 g ai/ha) was 0, the “Morningglory plant response rating” value (morningglory; 31 g ai/ha) was 0 and the “Morningglory plant response rating” value (morningglory; 62 g ai/ha) was 0. For the same compound, the “Plant response rating, Morningglory” value (morningglory; 125 g ai/ha) was 0, the “Plant response rating, Morningglory” value (morningglory; 250 g ai/ha) was 35 and the “Johnsongrass plant response rating” value (johnsongrass; 16 g ai/ha) was 0. The “Johnsongrass plant response rating” value (johnsongrass; 31 g ai/ha) was 0, the “Johnsongrass plant response rating” value (johnsongrass; 62 g ai/ha) was 0 and the “Plant response rating, Johnsongrass” value (johnsongrass; 125 g ai/ha) was 80. For the same compound, the “Dayflower, VA plant response rating” value (dayflower; 16 g ai/ha) was 0, the “Dayflower, VA plant response rating” value (dayflower; 31 g ai/ha) was 0 and the “Dayflower, VA plant response rating” value (dayflower; 62 g ai/ha) was 35. For the same compound, the “Plant response rating, Dayflower, VA” value (dayflower; 125 g ai/ha) was 95, the “Plant response rating, Dayflower, VA” value (dayflower; 250 g ai/ha) was 98 and the “Barnyardgrass plant response rating” value (barnyardgrass; 16 g ai/ha, preemergence) was 0. The “Barnyardgrass plant response rating” value (barnyardgrass; 31 g ai/ha, preemergence) was 0, the “Plant response rating, Barnyardgrass” value (barnyardgrass; Preemergence, 62 g ai/ha) was 0 and the “Plant response rating, Barnyardgrass” value (barnyardgrass; preemergence, 125 g ai/ha) was 5. The “Plant response rating, Barnyardgrass” value (barnyardgrass; preemergence, 250 g ai/ha) was 20, the “Plant response rating, Sedge, Umbrella” value (sedge, umbrella; 31 g ai/ha) was 70 and the “Plant response rating, Sedge, Umbrella” value (sedge, umbrella; 62 g ai/ha) was 75. The “Plant response rating, Sedge, Umbrella” value (sedge, umbrella; 125 g ai/ha) was 85 and the “Plant response rating, Sedge, Umbrella” value (sedge, umbrella; 250 g ai/ha) was 90.
